Measured values: paper PMC6331977, “Bioassay-Guided Isolation and Identification of Xanthine Oxidase Inhibitory Constituents from the Leaves of Perilla frutescens” (Molecules, 2015)

Assays:
xanthine oxidase (XO) [1] = target: T1, xanthine oxidase (XO) (Bos taurus, UniProt P80457); assay: Assay of XO activity (uric acid formation determined by HPLC); assay type: biochemical; design: purchased Sigma-Aldrich Chemicals (St. Louis, MO, USA); conditions: for XO inhibitory activity (in words): in vitro; for IC50: xanthine as substrate, 25 °C, pH 7.5, uric acid by HPLC
xanthine oxidase (XO) [2] = target: T1, xanthine oxidase (XO); assay: Assay of XO inhibitory modes of action (enzyme kinetics, Lineweaver-Burk plots); conditions: for Mode of Inhibition: Lineweaver-Burk plots

T1 sequence (P80457 whole entry): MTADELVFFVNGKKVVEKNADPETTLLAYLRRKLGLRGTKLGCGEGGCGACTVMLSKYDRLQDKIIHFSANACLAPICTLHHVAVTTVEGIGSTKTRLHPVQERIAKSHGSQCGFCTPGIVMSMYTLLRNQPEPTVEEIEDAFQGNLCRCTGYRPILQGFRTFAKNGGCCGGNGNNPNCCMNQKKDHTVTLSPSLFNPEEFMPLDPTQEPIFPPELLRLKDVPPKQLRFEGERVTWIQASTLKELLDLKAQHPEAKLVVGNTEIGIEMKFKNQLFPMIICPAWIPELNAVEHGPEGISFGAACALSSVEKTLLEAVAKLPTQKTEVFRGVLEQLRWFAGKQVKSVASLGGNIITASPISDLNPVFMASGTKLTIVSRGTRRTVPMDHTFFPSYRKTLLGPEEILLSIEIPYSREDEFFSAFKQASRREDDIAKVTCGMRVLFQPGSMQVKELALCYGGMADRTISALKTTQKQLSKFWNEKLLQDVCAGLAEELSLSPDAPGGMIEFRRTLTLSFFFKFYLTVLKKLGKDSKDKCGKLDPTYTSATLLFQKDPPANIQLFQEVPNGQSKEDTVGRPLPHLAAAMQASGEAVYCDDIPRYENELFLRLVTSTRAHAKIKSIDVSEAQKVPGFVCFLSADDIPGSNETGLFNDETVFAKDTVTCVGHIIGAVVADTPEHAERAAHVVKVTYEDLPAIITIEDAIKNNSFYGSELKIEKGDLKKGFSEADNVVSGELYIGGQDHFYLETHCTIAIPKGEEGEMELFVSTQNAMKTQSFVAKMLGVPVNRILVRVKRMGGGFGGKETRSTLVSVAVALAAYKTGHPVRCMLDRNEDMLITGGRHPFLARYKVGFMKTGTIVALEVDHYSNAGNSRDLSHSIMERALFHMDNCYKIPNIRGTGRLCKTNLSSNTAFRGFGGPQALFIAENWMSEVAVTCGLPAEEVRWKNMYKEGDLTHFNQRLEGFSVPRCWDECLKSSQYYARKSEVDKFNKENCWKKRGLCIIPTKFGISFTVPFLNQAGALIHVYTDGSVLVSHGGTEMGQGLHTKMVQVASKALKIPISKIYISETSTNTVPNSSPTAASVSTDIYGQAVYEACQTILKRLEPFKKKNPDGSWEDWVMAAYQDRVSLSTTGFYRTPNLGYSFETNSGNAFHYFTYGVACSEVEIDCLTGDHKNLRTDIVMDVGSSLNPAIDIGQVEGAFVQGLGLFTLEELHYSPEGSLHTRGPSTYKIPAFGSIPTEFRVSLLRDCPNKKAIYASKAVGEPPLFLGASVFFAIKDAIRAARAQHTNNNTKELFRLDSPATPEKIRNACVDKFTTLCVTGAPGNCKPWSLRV

Row | Structure (SMILES) | XO inhibitory activity (in words) (xanthine oxidase (XO) [1]) | IC50 (xanthine oxidase (XO) [1]) [µM] | Ki (xanthine oxidase (XO) [2]) [µM] | Mode of Inhibition (xanthine oxidase (XO) [2]) | Mode of Inhibition (xanthine oxidase (XO) [2]; listed as allopurinol) | Mode of Inhibition (xanthine oxidase (XO) [2]; listed as apigenin)
1 | C=COC(=O)/C=C/c1ccc(O)c(O)c1 [Vinyl caffeate, vinyl caffeate] | could significantly inhibit the production of uric acid | 31.3 | 5.05 | Competitive | – | –
2 | COC(=O)[C@@H](Cc1ccc(O)c(O)c1)OC(=O)/C=C/c1ccc(O)c(O)c1 [Methyl rosmarinate, methyl rosmarinate] | could significantly inhibit the production of uric acid | 26.6 | 2.85 | Competitive | – | –
3 | Oc1ncnc2[nH]ncc12 [Allopurinol, reference compound] | – | – | – | Competitive | competitive inhibitions | –
4 | O=c1cc(-c2ccc(O)cc2)oc2cc(O)cc(O)c12 [Apigenin, apigenin] | could significantly inhibit the production of uric acid | 0.44 | 0.11 | Mixed | – | mixed inhibition mode
5 | O=C(O)/C=C/c1ccc(O)c(O)c1 [Caffeic acid, caffeic acid] | – | 121 | 9.22 | – | – | –
6 | O=C(/C=C/c1ccc(O)c(O)c1)O[C@H](Cc1ccc(O)c(O)c1)C(=O)O [Rosmarinic acid, rosmarinic acid] | weak XO inhibitory activities | 91.7 | 26.2 | Competitive | – | –
